Data reported in patent publication EP0808833B1, “Vitamin D3 analogs” (F. HOFFMANN-LA ROCHE AG, priority 1996, dated 1997).
Read-outs that look alike come from different tables or passages of the source. Marks after values point to notes of the source that are not given here.

Tests used:
[1] = Calcium tolerance test in mice; format: in vivo; conditions: highest tolerated dose = dose resulting in zero weight gain, daily subcutaneous administration for 4 consecutive days; for MTD: mouse, in vivo, sc, read-out: HTD
From the text: Calcium tolerance test in mice
Profound changes in calcium homeostasis strongly affect the weight development of mice. Mice (25-30 g body weight) received daily subcutaneous administrations of the compound for 4 consecutive days. Body weight was registered just before and at the end of a […] treatment period. The "highest tolerated dose" (HTD) is the dose which results in zero weight gain during this treatment period.

[2] = system: HaCaT cells; experiment: Inhibition of keratinocyte proliferation (3H-thymidine uptake, HaCaT); format: cell-based; conditions: Homo sapiens, 3H-thymidine incorporation after 6 days of culture in presence of the test compound
[3] = system: T47-D breast carcinoma cells; experiment: Antiproliferative activity in T47-D breast carcinoma cells (MTT); format: cell-based; conditions: Homo sapiens, T47D, 72 h
[4] = system: UVB-Induced Dermal Damage; experiment: Repair of UVB-induced dermal damage in the hairless mouse; format: in vivo, Hairless mice; conditions: treated three times per week after UVB irradiation
Protocol: Repair of UVB-Induced Dermal Damage in the Hairless Mouse by Compounds of Formula I Hairless mice (female, HRS/J strain, Jackson Labs, 5-7 weeks old at the start of the experiments) were housed in yellow light and irradiated three times per week with a bank of 8 Westinghouse Sunlamps (FS72T12 HO, peak irradiance at 313 nm) placed about 20 cm above the animals. UVB output was measured on an International Light Research Radiometer, model IL 1700, using a SEE240 detector. With this setup, the lamp output was approximately 3.5 mW/cm^2 and the time of exposure for 0.06 J/cm^2 was about 17 seconds; 1 MED is approximately 0.03 J/cm^2. The precise dose was delivered by a IL […] Phototherapy Exposure Control. Daily doses were 0.03 J/cm^2 for two weeks, 0.06 J/cm^2 for two weeks and 0.08 J/cm^2 thereafter, until a total dose of approximately 4 J/cm^2 was accumulated. To effect repair of the dermal damage, the UVB irradiation was discontinued and the animals were divided into groups of approximately eight and treated three times per week with various concentrations of the vitamin D analogs dissolved in ethanol. All dosing was done under yellow light. […] In these studies, since the width of the zone varies considerably, the area of the zone on a standard length of histological section is measured by image analysis. Compounds are tested at three doses and an approximate ED50 calculated.

[5] = system: sebaceous cells; experiment: Inhibition of human sebocyte proliferation in vitro; format: cell-based; conditions: amount of compound necessary to inhibit proliferation of sebaceous cells by 50% as compared to a vehicle-treated culture, tested at 10^-6, 10^-7 and 10^-8 M, read-out: ED50 (the source's name)
Protocol: Inhibition of Human Sebocyte Proliferation In Vitro
The cells were cultured in Iscove's medium containing 10% fetal calf serum and 4 µg/ml dexamethasone on a layer of growth-arrested 3T3 mouse fibroblasts. Cells were plated in medium without the test compound and then given test compound in fresh medium 24-48 hours after the initial plating. The cultures were given fresh medium, containing the test compound, every 48 hours. On the day of harvesting, the cultures were rinsed with 0.03% EDTA (ethylenediamine tetroacetic acid) in PBS (phosphate-buffered saline), to remove only the 3T3 fibroblasts, followed by incubation in 0.05% trypsin/0.03% EDTA. The cells were suspended, mixed vigorously to prepare a single cell suspension and counted in a hemocytometer.
Stock solutions of compounds were made up as 10^-2 M solutions in degassed 100% ethanol and stored at -20°C in the dark. During experimental use, the solutions, which have been aliquoted, were brought to room temperature and used by diluting directly into complete medium to the appropriate concentration.

[6] = system: HL-60 cells; experiment: HL-60 cell differentiation (NBT reduction); format: cell-based; conditions: Homo sapiens, HL-60, 72 h, concentration leading to 50% of maximal differentiation achieved with 100-1000 nM calcitriol, 3 days, read-out: ED50 (the source's name)

Molecule	HTD [1] [µg/kg]	EC50 [5] [nM]	further results
1,25-Dihydroxy-16,23Z-diene-26,27-hexafluoro-20-epi-19-norcholecalciferol	3.0		
C=C1/C(=C\C=C2/CCC[C@]3(C)C([C@@H](C)C/C=C/C(O)(C(F)(F)F)C(F)(F)F)=CC[C@@H]23)C[C@@H](O)C[C@@H]1O [1,25-Dihydroxy-16,23E-diene-26,27-hexafluoro-20-epi-cholecalciferol]			IC50 [2]: 0.7 nM; IC50 [3]: 10 nM; Repair Zone ([4]; Dose 0.1 µg, P < 0.001 vs vehicle control): 0.0282±0.0092*** mm^2; Repair Zone ([4]; Dose 0.5 µg, P < 0.05 vs vehicle control): 0.0102±0.0067* mm^2; EC50 ([5]; Homo sapiens): < 10 nM; EC50 [6]: 0.37 nM; MTD [1]: 2.5 µg/kg
C=C1C(=CC=C2CCCC3(C)C(C(C)C/C=C\C(O)(C(F)(F)F)C(F)(F)F)=CCC23)CC(O)CC1O (stereo not drawn) [1,25-Dihydroxy-16,23Z-diene-26,27-hexafluoro-20-epi-cholecalciferol]	2.5		
C=C1C(=CC=C2CCCC3(C)C(C(C)CCCC(C)(C)O)=CCC23)CC(O)CC1O (stereo not drawn) [1,25-Dihydroxy-16-ene-20-epi-cholecalciferol]	30	< 1	
C=C1C(=CC=C2CCCC3(C)C(C(C)CC#CC(C)(C)O)=CCC23)CC(O)CC1O (stereo not drawn) [1,25-Dihydroxy-16-ene-23-yne-20-epi-cholecalciferol]	100	50	
C=C1/C(=C\C=C2/CCC[C@]3(C)C([C@@H](C)CC#CC(O)(C(F)(F)F)C(F)(F)F)=CC[C@@H]23)C[C@@H](O)C[C@@H]1O [1,25-Dihydroxy-16-ene-23-yne-26,27-hexafluoro-20-epi-cholecalciferol]	6.0	< 10	
C=C1/C(=C\C=C2/CCC[C@]3(C)[C@@H]([C@H](C)CCCC(C)(C)O)CC[C@@H]23)C[C@@H](O)C[C@@H]1O [1,25-Dihydroxy-cholecalciferol, reference compound]			MTD [1]: 0.5 µg/kg
C=C1C(=CC=C2CCCC3(C)C(C(C)C/C=C\C(O)(C(F)(F)F)C(F)(F)F)=CCC23)CC(O)CC1F (stereo not drawn) [1α-Fluoro-25-hydroxy-16,23Z-diene-26,27-hexafluoro-20-epi-cholecalciferol]	8.0		
